Tested on: participants with T1D
Assay: Randomized crossover clinical trial (NCT04201496): CGM glycemic outcomes with 5 mg daily empagliflozin adjunctive to AID (Control-IQ, CIQ) or PLGS (Basal-IQ, BIQ)
Type: in vivo, human
Conditions: for % CGM time <50 mg/dL (<2.8 mmol/L) / % CGM time <60 mg/dL (<3.3 mmol/L) / % CGM time <70 mg/dL (<3.9 mmol/L) / % CGM time >180 mg/dL (>10.0 mmol/L) / % CGM time >250 mg/dL (>13.9 mmol/L) / % CGM time >300 mg/dL (>16.7 mmol/L) / CGM HBGI / CGM LBGI: median (IQR)
Method: FIG. 2 presents a study analysis relative to baseline, control IQ (CIQ) (e.g., AID), and basal IQ (BIQ) (e.g., PLGS) implementation, according to investigation that is demonstrable of one or more embodiments herein. Therein, an experimental arm (G1, G2) providing an initial daily dose of 5 mg empagliflozin (EMPA) is depicted against a control arm (G3, G4) without such dosing (NOEMPA). Relative characteristics of the analysis are provided below.
Study Design: A single-center, randomized, controlled, unblinded, crossover clinical trial (NCT04201496) compared four parallel groups, two groups in the experimental arm (EMPA) with 5 mg daily empagliflozin as adjunctive therapy to PLGS or AID, and two groups in the control arm (NOEMPA) with no drug and with a PLGS system (Basal-IQ, Tandem Diabetes Care) or AID system (Control-IQ, Tandem Diabetes Care). The groups within each arm differed from one another in the order of the randomly assigned crossover technological intervention, relative to PLGS being followed by AID or AID being followed by PLGS, respectively (FIG. 4). The study protocol was approved by the University of Virginia Institutional Review Board (IRB). An investigational device exemption (IDE), including an investigational new drug (IND) application for empagliflozin, was approved by the FDA. Safety aspects were overseen by an external data and safety monitoring board (DSMB). Participants: Major inclusion criteria were T1D treated with insulin for at least one year, use of continuous subcutaneous insulin infusion therapy for at least six months, age 18-65 yrs., no use of glucose lowering agents other than insulin, and Hb1Ac<9% (75 mmol/mol). Randomization: A (1:1:1:1) randomization assigned participants to either Group 1, AID-EMPA (4 weeks) followed by PLGS-EMPA (2 weeks), Group 2, PLGS-EMPA (2 weeks) followed by AID-EMPA (4 weeks), Group 3, AID-NOEMPA (4 weeks) followed by PLGS-NOEMPA (2 weeks), and Group 4, PLGS-NOEMPA (2 weeks) followed by AID-NOEMPA (4 weeks). Procedures: After confirmation of eligibility, participants underwent study equipment and medication training (experimental arm), or only study equipment training (control arm). Study equipment consisted of Dexcom G6® CGM (Dexcom Inc., San Diego, CA), Contour® Next blood glucose (Ascensia Diabetes Care, Basel, Switzerland) and Precision Xtra® blood ketone meters (Abbott, Alameda, CA) with their respective test strips; infusion sets, and the use of the t:slim X2™ insulin pump with Basal-IQ or Control-IQ technologies (Tandem Diabetes Care, San Diego, CA), according to randomization. […] Participants in the experimental arm were asked to record two days of baseline ketone values before initiating the use of the study drug. Thereafter, participants were directed to use the study CGM with EMPA for 1-2 weeks. A tolerance to the medication was assessed prior to the starting of the next study phase, including adherence to the protocol, ketone testing 2-4 times per day with monitored values not greater than 0.6 mmol/L on at least two successive occasions (the first testing upon waking in a fasted state), no adverse events relating to perineal infection or symptomatic postural hypotension, and no evidence of significant hypoglycemia <54 mg/dL, or any other listed adverse effects of the medication. Participants in the control arm were directed to use the study CGM for 1-2 weeks. Sample Size: The total sample size was projected to be 40 participants, assuming 1) 1:1:1:1 randomization; 2) 90% power and type 1 error a=0.01, further reinforcing the feasibility of hierarchical analyses. The projected recruitment sample was n=50, to accommodate up to 20% attrition rate without sacrificing statistical power. Analytical methods: For the primary analysis, TIR during the day in the 4-week AID period was compared between the two EMPA groups versus the two NOEMPA groups using a linear mixed-effects regression model while adjusting for pre-randomization HbAlc and age. […]

[1] = overall, CIQ-EMPA vs. CIQ-NOEMPA, BIQ-EMPA vs. BIQ-NOEMPA
[2] = overall, PLGS-EMPA (see Tables 4 and 5)
[3] = overnight, CIQ-EMPA vs. BIQ-NOEMPA, BIQ-EMPA vs. CIQ-NOEMPA
[4] = overnight, CIQ-EMPA vs. CIQ-NOEMPA, BIQ-EMPA vs. BIQ-NOEMPA
[5] = overnight, PLGS-EMPA compared to PLGS-NOEMPA

SMILES: OC[C@H]1O[C@@H](c2ccc(Cl)c(Cc3ccc(O[C@H]4CCOC4)cc3)c2)[C@H](O)[C@@H](O)[C@@H]1O [BIQ-EMPA, empagliflozin]
- Difference: CGM LBGI (overall, CIQ-EMPA vs. BIQ-NOEMPA, BIQ-EMPA vs. CIQ-NOEMPA): 0.2
- Difference: CGM HBGI [1]: −4.3
- Difference: CGM LBGI [1]: 0.1
- Difference: CGM SD [1]: -14.3 mg/dL
- decrease in mean glucose overall [2]: 24 mg/dL
- decrease in percent time in hyperglycemia [2]: 18.6%
- % CGM time <70-140 mg/dL (<3.9-7.8 mmol/L) (overall, n = 16, mean ± SD): 56.8 ± 16.5%
- % CGM time <70-180 mg/dL (<3.9-10.0 mmol/L) (overall, n = 16, mean ± SD): 79 ± 15.7%
- CGM CV (%) (overall, n = 16, mean ± SD): 32.1 ± 3.7%
- CGM SD (overall, n = 16, mean ± SD): 46 ± 14.6 mg/dL
- % CGM time <50 mg/dL (<2.8 mmol/L) (overall, n = 16): 0(0-0.4) %
- % CGM time <60 mg/dL (<3.3 mmol/L) (overall, n = 16): 0.5(0.2-0.9) %
- % CGM time <70 mg/dL (<3.9 mmol/L) (overall, n = 16): 1.7(0.9-2.7) %
- % CGM time >180 mg/dL (>10.0 mmol/L) (overall, n = 16): 15(6.7-22.7) %
- % CGM time >250 mg/dL (>13.9 mmol/L) (overall, n = 16): 1.7(0.2-3.6) %
- % CGM time >300 mg/dL (>16.7 mmol/L) (overall, n = 16): 0.2(0-0.6) %
- CGM HBGI (overall, n = 16): 3.3(1.8-4.7)
- CGM LBGI (overall, n = 16): 0.7(0.6-1)
- Difference (95% CI): % CGM time <50 mg/dL (<2.8 mmol/L) [3]: −0.4 percentage points
- Difference (95% CI): % CGM time >180 mg/dL (>10.0 mmol/L) [3]: −5.1 percentage points
- Difference (95% CI): % CGM time >300 mg/dL (>16.7 mmol/L) [3]: −0.3 percentage points
- Difference (95% CI): CGM CV (%) [3]: −3.1%
- Difference (95% CI): CGM HBGI [3]: −1.1
- Difference (95% CI): CGM LBGI [3]: 0.3
- Difference (95% CI): CGM SD [3]: -8.2 mg/dL
- Difference (95% CI): Mean CGM glucose [3]: -9.8 mg/dL
- Difference (95% CI): % CGM time >180 mg/dL (>10.0 mmol/L) [4]: −18.2 percentage points
- Difference (95% CI): % CGM time >250 mg/dL (>13.9 mmol/L) [4]: −13.9 percentage points
- Difference (95% CI): % CGM time >300 mg/dL (>16.7 mmol/L) [4]: −4.8 percentage points
- Difference (95% CI): CGM HBGI [4]: −6.2
- Difference (95% CI): CGM LBGI [4]: 0.2
- Difference (95% CI): CGM SD [4]: -17.2 mg/dL
- decrease in time in hyperglycemia [5]: 7.6%
- increase in percent TIR [5]: 17%
- % CGM time 70-140 mg/dL (3.9-7.8 mmol/L) (overnight, n = 16, mean ± SD): 54 ± 21%
- % CGM time 70-180 mg/dL (3.9-10.0 mmol/L) (overnight, n = 16, mean ± SD): 76 ± 21%
- CGM CV (%) (overnight, n = 16, mean ± SD): 30.5 ± 4.2%
- CGM SD (overnight, n = 16, mean ± SD): 44.5 ± 14 mg/dL
- Mean CGM glucose (overnight, n = 16, mean ± SD): 145 ± 41 mg/dL
- % CGM time <50 mg/dL (<2.8 mmol/L) (overnight, n = 16): 0(0-0.5) %
- % CGM time <60 mg/dL (<3.3 mmol/L) (overnight, n = 16): 0.5(0.1-1.1) %
- % CGM time <70 mg/dL (<3.9 mmol/L) (overnight, n = 16): 1.5(0.4-2.7) %
- % CGM time >180 mg/dL (>10.0 mmol/L) (overnight, n = 16): 16.2(7-30.8) %
- % CGM time >250 mg/dL (>13.9 mmol/L) (overnight, n = 16): 0.1(0-2.4) %
- % CGM time >300 mg/dL (>16.7 mmol/L) (overnight, n = 16): 0(0-0.2) %
- CGM HBGI (overnight, n = 16): 3.3(2.1-5.2)
- CGM LBGI (overnight, n = 16): 0.7(0.4-1.4)
- night-time in range, h out of 8 h (overnight, out of 8 h of the night-time, listed as PLGS-EMPA): 6 h
